# PubChem BioAssay (NCI)
# Several values for one entry are separate records, joined by “and”; a condition that tells them apart may be missing. Equal values may be shown once.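 Five compound concentrations were applied to cells in 96-well plates for 48 hours; endpoints were derived by simple linear interpolation of the resulting dose-response curve. Abbreviation: GI50, concentration required for 50% inhibition of growth. TGI marks complete inhibition of growth.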
# Tests used:
# Test in all cases: growth of human tumour cells (NCI), 48 h
# [1] = test system: CCRF-CEM leukemia
# [2] = test system: HOP-92 NSCLC
# [3] = test system: IGROV1 ovarian
# [4] = test system: MDA-MB-231 breast
# [5] = test system: SF-539 CNS
# [6] = test system: MCF7 breast
# [7] = test system: CAKI-1 renal
# [8] = test system: UACC-62 melanoma
# [9] = test system: A498 renal
# [10] = test system: SN12C renal
# [11] = test system: MOLT-4 leukemia
# [12] = test system: SNB-19 CNS
# [13] = test system: OVCAR-3 ovarian
# [14] = test system: NCI/ADR-RES ovarian
# [15] = test system: EKVX NSCLC
# [16] = test system: SF-268 CNS
# [17] = test system: DU-145 prostate
# [18] = test system: KM12 colon
# [19] = test system: SR leukemia
# [20] = test system: U251 CNS
# [21] = test system: T-47D breast
# [22] = test system: SF-295 CNS
# [23] = test system: COLO 205 colon
# [24] = test system: RPMI-8226 leukemia
# [25] = test system: UO-31 renal
# [26] = test system: SK-MEL-28 melanoma
# [27] = test system: M14 melanoma
# [28] = test system: MDA-MB-435
compound,measurement,setting,value
Nc1ccn([C@@H]2O[C@H](COP(=O)(O)O[C@@H]3C[C@H](n4cc(F)c(=O)[nH]c4=O)O[C@@H]3COP(=O)(O)O[C@@H]3C[C@H](n4cc(F)c(=O)[nH]c4=O)O[C@@H]3COP(=O)(O)O[C@@H]3C[C@H](n4cc(F)c(=O)[nH]c4=O)O[C@@H]3COP(=O)(O)O[C@@H]3C[C@H](n4cc(F)c(=O)[nH]c4=O)O[C@@H]3COP(=O)(O)O[C@@H]3C[C@H](n4cc(F)c(=O)[nH]c4=O)O[C@@H]3COP(=O)(O)O[C@@H]3C[C@H](n4cc(F)c(=O)[nH]c4=O)O[C@@H]3COP(=O)(O)O[C@@H]3C[C@H](n4cc(F)c(=O)[nH]c4=O)O[C@@H]3COP(=O)(O)O[C@@H]3C[C@H](n4cc(F)c(=O)[nH]c4=O)O[C@@H]3COP(=O)(O)O[C@@H]3C[C@H](n4cc(F)c(=O)[nH]c4=O)O[C@@H]3COP(=O)(O)O[C@@H]3C[C@H](n4cc(F)c(=O)[nH]c4=O)O[C@@H]3COP(=O)(O)OCCOCCOCCOCCOCCOCCO)[C@H](O)C2O)c(=O)n1 (stereo not given in full),TGI,[1],21.1 µM and > 100 µM
same,GI50,[2],3.86 µM and 14.1 µM
same,TGI,[2],21.1 µM and > 100 µM
same,GI50,[3],1.63 µM and 1.45 µM
same,TGI,[3],21.1 µM and > 100 µM
same,TGI,[4],21.1 µM and > 100 µM
same,GI50,[5],0.00565 µM
same,TGI,[5],21.1 µM and > 100 µM
same,GI50,[6],0.00211 µM
same,TGI,[6],21.1 µM and > 100 µM
same,GI50,[7],0.00832 µM
same,TGI,[7],21.1 µM and > 100 µM
same,GI50,[8],0.00557 µM and 0.0279 µM
same,GI50,[9],0.0204 µM and 0.0631 µM
same,TGI,[9],21.1 µM and > 100 µM
same,GI50,[10],0.0124 µM
same,TGI,[10],21.1 µM
same,GI50,[11],0.0246 µM and 0.0443 µM
same,TGI,[11],21.1 µM and > 100 µM
same,GI50,[12],0.0721 µM and 0.0219 µM
same,TGI,[12],21.1 µM and > 100 µM
same,GI50,[13],> 100 µM
same,TGI,[13],> 100 µM
same,GI50,[14],0.0146 µM and 0.0121 µM
same,TGI,[14],21.1 µM and > 100 µM
same,TGI,[15],> 100 µM
same,GI50,[16],0.00514 µM
same,TGI,[16],21.1 µM and > 100 µM
same,GI50,[17],0.0185 µM and 0.0254 µM
same,TGI,[17],21.1 µM and > 100 µM
same,GI50,[18],0.178 µM
same,TGI,[18],21.1 µM
same,GI50,[19],0.621 µM
same,TGI,[19],21.1 µM and > 100 µM
same,GI50,[20],0.0101 µM
same,TGI,[20],21.1 µM and > 100 µM
same,TGI,[21],21.1 µM and > 100 µM
same,GI50,[22],0.00328 µM
same,TGI,[22],21.1 µM and > 100 µM
same,GI50,[23],0.00973 µM
same,TGI,[23],21.1 µM and > 100 µM
same,GI50,[24],0.332 µM and 1.71 µM
same,TGI,[24],21.1 µM and > 100 µM
same,GI50,[25],0.00659 µM
same,TGI,[25],6.57 µM and 7.3 µM
same,TGI,[26],21.1 µM and > 100 µM
same,GI50,[27],0.00911 µM and 0.0126 µM
same,TGI,[27],2.56 µM and 4.9 µM
same,GI50,[28],1.28 µM and 0.233 µM
same,TGI,[28],21.1 µM and > 100 µM
